Assays:
[1] = molecular target: HLA-DR1 (DR1) (DRA*0101/DRB1*010101) (Homo sapiens, UniProt P01903+P01911, A100R/D57E/F55L/F60I/F76Y/I96L/L162R/M171V/P40L/Q125E/R42F/V115G/Y59C); assay: Numerical modeling; assay type: binding; settings: Scheme V
MHC II = settings: as previously reported; cited from earlier work

## Ac-PRFVKQNTLRLAT [HA]
[1]; bound for same fit
  k-3 (values that could produce the same fits): less than 1×10^−4
  k-6 (values that could produce the same fits): less than 1×10^−4
  k-7 (values that could produce the same fits): less than 1×10^−4
[1]; best fit value, DM-MHC resolves into inactive MHC II in the absence of peptides, kept the same for HA and CLIP, 0.4 μM DR1, 0.4 μM DM
  k5: 0.36 min⁻¹
MHC II
  intrinsic and DM-catalyzed dissociation half-life: ~ 100 hours

Source: publication PMC4490944 (Journal of immunology (Baltimore, Md. : 1950), 2015)
